Consider 5 compounds from patent US8293537B2, “Systems and methods for hemoglobin analysis” (priority 2010, dated 2012).

What all share (type): biochemical
One experiment concerns peroxidase. The experiment in a line: Peroxidase assay in saliva (Amplex Red). The following applies: 500 ppm; pooled or unpooled saliva; 30 minutes; FIGS. 26-29.
In another experiment the target is T1, α-amylase (Homo sapiens, UniProt P0DUB6).
T1 sequence (P0DUB6 16-511): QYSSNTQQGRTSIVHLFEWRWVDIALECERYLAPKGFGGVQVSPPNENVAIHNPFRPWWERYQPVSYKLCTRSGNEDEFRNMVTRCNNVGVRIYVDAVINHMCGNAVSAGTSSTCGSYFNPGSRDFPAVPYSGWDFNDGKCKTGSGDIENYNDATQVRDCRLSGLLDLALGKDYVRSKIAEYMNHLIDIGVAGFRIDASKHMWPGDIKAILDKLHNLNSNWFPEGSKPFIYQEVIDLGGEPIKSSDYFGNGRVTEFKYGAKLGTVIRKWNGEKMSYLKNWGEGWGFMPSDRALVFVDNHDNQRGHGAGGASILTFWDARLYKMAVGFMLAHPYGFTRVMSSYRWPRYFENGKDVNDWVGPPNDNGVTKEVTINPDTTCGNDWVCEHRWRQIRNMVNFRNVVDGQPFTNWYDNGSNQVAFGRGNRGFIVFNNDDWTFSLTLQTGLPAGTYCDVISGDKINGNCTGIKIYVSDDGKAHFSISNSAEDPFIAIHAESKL
The experiment in a line: α-Amylase inhibition saliva screening (chromogenic substrate, 405 nm). The following applies: for Ave (absorbance at 405 nm) / individual reading (absorbance at 405 nm): saliva; for Ave (absorbance at 405 nm): 5,000 ppm; for individual reading (absorbance at 405 nm): test compound prepared at 5,000 ppm, 37° C.; for α-Amylase inhibition: 100% saliva samples, FIG. 11. An excerpt: Further details of these five compounds may also be seen in Table 4.

The next experiment addresses T2, Lysozyme (Homo sapiens, UniProt P61626).
T2 sequence (P61626 19-148): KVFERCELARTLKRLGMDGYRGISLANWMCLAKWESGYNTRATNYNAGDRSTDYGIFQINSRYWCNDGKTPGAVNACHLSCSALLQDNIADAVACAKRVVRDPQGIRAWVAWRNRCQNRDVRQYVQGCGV
The experiment in a line: Lysozyme inhibition saliva screening (fluorescein-labeled Micrococcus lysodeikticus). As to conditions: 100% saliva samples (data not shown). An excerpt:
Further details of these five compounds may also be seen in Table 5.

Where “and” joins values, the source holds several entries; their conditions need not be identical. Equal values may be shown once.

Method for peroxidase: To determine the effect of various GRAS compounds as inhibitors of peroxidase activity, a standard assay using Amplex® Red (Life Technologies), which releases a fluorescent oxidation product.
The test compounds, such as GRAS materials or cocktails of same, were prepared at a concentration of 500 ppm in distilled water. For the assay, 50 μl samples of test compounds were mixed with 20-30 μl of saliva (either “pooled” or “unpooled”) prior to the addition of Amplex® Red. […] Reactions were allowed to run for 30 minutes during these assays.

Consider `Cn1c(=O)c2c(ncn2C)n(C)c1=O` [CDI-33, Caffeine], for which the peroxidase inhibition result in the experiment on peroxidase is reported as “showed significant peroxidase inhibition capabilities”.

`COc1ccc(O)c(C(C)(C)C)c1` [CDI-39, 3-tert--butyl-hydroxyanisole]: the peroxidase inhibition result with peroxidase is given as “showed significant peroxidase inhibition capabilities”.

For the compound Aluminum sulfate hydrate [CDI-34], the results for the “Ave (absorbance at 405 nm)” value at α-amylase (0 min), on α-amylase (5 min) and at α-amylase (15 min) were 0.40, 0.50 and 0.56, respectively. Moreover, the “individual reading (absorbance at 405 nm)” value is 0.40 (2×) and 0.36 and 0.45 on α-amylase (0 min, sulfate hydrate); 0.49 and 0.50 (2×) and 0.52 at α-amylase (5 min, sulfate hydrate); 0.53 and 0.61 and 0.54 and 0.56 at α-amylase (15 min, sulfate hydrate). In addition, the α-Amylase inhibition entry on α-amylase was “shown to inhibit α-Amylase”.

As for `O=C(O)c1ccccc1` [CDI-40, Benzoic acid], on Lysozyme, the Lysozyme inhibition result was “shown to inhibit Lysozyme”.

As to “Aluminum potassium sulfate dodecahydrate [CDI-42]”, the “Ave (absorbance at 405 nm)” value at α-amylase (0 min) worked out at 0.92. Also, the “individual reading (absorbance at 405 nm)” value on α-amylase (0 min) was 0.80 and 1.13 and 0.90 and 0.84; on α-amylase (5 min), 1.65 and 2.15 and 1.80 and 1.81; on α-amylase (15 min), 2.37 and 2.38 and 2.25 and 2.17. At α-amylase, the α-Amylase inhibition result was “shown to inhibit α-Amylase”. Besides, the peroxidase inhibition entry with peroxidase is “showed significant peroxidase inhibition capabilities”.
